Measurements reported in ChEMBL document CHEMBL1759914, “The solvolysis of topotecan in alcohols and acetic anhydride” (Bioorg Med Chem Lett, 2011).

Experiments:
KB = test: Antitumor activity against human KB cells by WST-1 assay; type: functional, cell-based
HepG2 = test: Antitumor activity against human HepG2 cells by WST-1 assay; type: functional, cell-based
[1] = Antitumor activity against mouse C26 cells by WST-1 assay; type: functional, cell-based
[2] = Ratio of compound IC50 to 10-hydroxycamptothecin IC50 for mouse C26 cells; type: functional

SMILES | IC50 (KB) | IC50 (HepG2) | IC50 [1] | Ratio IC50 [2]
CC[C@@]1(O)C(=O)OCc2c1cc1n(c2=O)Cc2cc3cc(O)ccc3nc2-1 [HYDROXYCAMPTOTHECIN] | 829 nM | 981 nM | 496 nM | –
CCOCc1c(O)ccc2nc3c(cc12)Cn1c-3cc2c(c1=O)COC(=O)[C@]2(O)CC | 19700 nM | 3910 nM | 29100 nM | –
CC[C@@]1(OC(C)=O)C(=O)OCc2c1cc1n(c2=O)Cc2cc3c(COC(C)=O)c(OC(C)=O)ccc3nc2-1 | 1150 nM | 1310 nM | 424 nM | –
CC[C@@]1(O)C(=O)OCc2c1cc1n(c2=O)Cc2cc3c(COC(C)C)c(O)ccc3nc2-1 | 7250 nM | 13500 nM | 3880 nM | –
CC[C@@]1(O)C(=O)OCc2c1cc1n(c2=O)Cc2cc3c(COC)c(O)ccc3nc2-1 | 25400 nM | 92100 nM | 101000 nM | –
CC[C@@]1(O)C(=O)OCc2c1cc1n(c2=O)Cc2cc3c(COC(C)=O)c(OC(C)=O)ccc3nc2-1 | 794 nM | 1000 nM | 157 nM | 3
CC[C@@]1(O)C(=O)OCc2c1cc1n(c2=O)Cc2cc3c(COC(C)(C)C)c(O)ccc3nc2-1 | 1380 nM | 802 nM | 273 nM | –
